Results as given in PMC2895357 (Journal of Medicinal Chemistry, 2010).

Tests used:
[1] = molecular target: T1, TbGalE (UDP-galactose 4′-epimerase from Trypanosoma brucei) (Trypanosoma brucei, UniProt Q8T8E9); experiment: TbGalE inhibition assay; type: biochemical; settings: for Hill Slope: TbGalE potency curve
T1 sequence (Q8T8E9 1-395): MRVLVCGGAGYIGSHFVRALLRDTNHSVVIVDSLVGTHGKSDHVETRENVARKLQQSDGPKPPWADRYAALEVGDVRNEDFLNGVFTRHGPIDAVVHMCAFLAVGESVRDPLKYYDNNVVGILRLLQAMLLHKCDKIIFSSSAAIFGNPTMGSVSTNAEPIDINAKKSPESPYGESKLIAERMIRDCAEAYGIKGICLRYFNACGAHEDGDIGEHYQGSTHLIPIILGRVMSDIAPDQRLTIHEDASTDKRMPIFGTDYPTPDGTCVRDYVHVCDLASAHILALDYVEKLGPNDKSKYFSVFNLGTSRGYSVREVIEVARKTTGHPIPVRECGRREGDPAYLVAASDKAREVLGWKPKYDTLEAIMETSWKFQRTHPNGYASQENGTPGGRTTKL

[2] = Cytotoxicity assay against human MRC5 cells; type: cell-based; settings: human, MRC5 cells
Trypanosoma cruzi = settings: cited from earlier work
cultured T. brucei = type: cell-based, Trypanosoma brucei; settings: whole-cell T. brucei, three days, Alamar Blue
human MRC5 cells = experiment: Cytotoxicity assay against human MRC5 cells; type: cell-based; settings: human MRC5 cells, three days, Alamar Blue

O=C(O)c1ccccc1-c1ccccc1C(=O)Nc1ccc2c(c1)nc(O)c1ccccc12 [compound 1]
Hill Slope [1]: 1.8 ± 0.6 | EC50 at 3 days [2]: > 50 µM

CCn1c2ccccc2c2cc(NC(=O)c3ccccc3-c3ccccc3C(=O)O)ccc21 [compound 2]
Hill Slope [1]: 1.2 ± 0.3 | EC50 at 3 days [2]: > 50 µM

COC1C(OC(=O)c2ccc(C)[nH]2)C(O)C(Oc2ccc3c(O)c(NC(=O)c4ccc(O)c(CC=C(C)C)c4)c(=O)oc3c2Cl)OC1(C)C (stereo not drawn) [compound 3, clorobiocin]
Hill Slope [1]: 2.1 ± 0.5 | EC50 at 3 days [2]: > 50 µM | inhibition of growth of Trypanosoma cruzi (Trypanosoma cruzi): inhibit the growth

O=C(O)c1ccccc1-c1ccccc1C(=O)Nc1ccc2c(c1)C(=O)c1ccccc1-2 [compound 5]
EC50 at 3 days [2]: > 50 µM

O=C(O)c1ccccc1-c1ccccc1C(=O)Nc1ccc2c(c1)Cc1cc(F)ccc1-2 [compound 10]
EC50 at 3 days [2]: > 50 µM

O=C(O)c1ccccc1-c1ccccc1C(=O)Nc1cc2c3ccccc3ccc2c2ccccc12 [compound 12]
EC50 at 3 days [2]: > 50 µM

O=C(O)c1cc(Cl)ccc1-c1ccc(Cl)cc1C(=O)Nc1ccc2c(c1)Cc1ccccc1-2 [compound 13]
EC50 at 3 days [2]: > 50 µM

O=C(O)c1cc(Cl)ccc1-c1ccc(Cl)cc1C(=O)NC1=CC2=C(CC1)c1c(Cl)cc(Cl)cc1C2 [compound 14]
Tb EC50 (cultured T. brucei): no activity | MRC5 EC50 (human MRC5 cells): demonstrated inhibition of MRC5 growth

CO[C@@H]1[C@@H](OC(N)=O)[C@@H](O)[C@H](Oc2ccc3c(O)c(NC(=O)c4ccc(O)c(CC=C(C)C)c4)c(=O)oc3c2C)OC1(C)C [novobiocin, reference compound]
inhibition at 10 µM ([1]; read-out: TbGalE inhibition at 10 μM): ≤ 50% | inhibition of growth of Trypanosoma cruzi (Trypanosoma cruzi): inhibits the growth
